# Numbers after ± are expanded uncertainties.
# Test: excess molar enthalpy (molar enthalpy of mixing); xn = mol fraction of the nth substance listed
# Details: 298.15 K, 101 kPa, Liquid, Calvet calorimetry
structure (smiles),measurement,setting,value
CCCCCCCC[n+]1ccn(C)c1.F[B-](F)(F)F [1-methyl-3-octylimidazolium tetrafluoroborate] + CCCCCO,excess molar enthalpy,x1 = 0.213,0.35 ± 0.00813 kcal/mol
same,excess molar enthalpy,x1 = 0.218,0.358 ± 0.00813 kcal/mol
same,excess molar enthalpy,x1 = 0.223,0.365 ± 0.00837 kcal/mol
same,excess molar enthalpy,x1 = 0.229,0.373 ± 0.00837 kcal/mol
same,excess molar enthalpy,x1 = 0.234,0.38 ± 0.0086 kcal/mol
same,excess molar enthalpy,x1 = 0.24,0.388 ± 0.0086 kcal/mol
same,excess molar enthalpy,x1 = 0.244,0.393 ± 0.0086 kcal/mol
same,excess molar enthalpy,x1 = 0.249,0.398 ± 0.00884 kcal/mol
same,excess molar enthalpy,x1 = 0.254,0.404 ± 0.00884 kcal/mol
same,excess molar enthalpy,x1 = 0.259,0.41 ± 0.00908 kcal/mol
same,excess molar enthalpy,x1 = 0.264,0.416 ± 0.00932 kcal/mol
same,excess molar enthalpy,x1 = 0.269,0.423 ± 0.00932 kcal/mol
same,excess molar enthalpy,x1 = 0.275,0.429 ± 0.00932 kcal/mol
same,excess molar enthalpy,x1 = 0.281,0.435 ± 0.00956 kcal/mol
same,excess molar enthalpy,x1 = 0.287,0.443 ± 0.0098 kcal/mol
same,excess molar enthalpy,x1 = 0.293,0.45 ± 0.0098 kcal/mol
same,excess molar enthalpy,x1 = 0.3,0.457 ± 0.01 kcal/mol
same,excess molar enthalpy,x1 = 0.306,0.464 ± 0.01 kcal/mol
same,excess molar enthalpy,x1 = 0.314,0.472 ± 0.0103 kcal/mol
same,excess molar enthalpy,x1 = 0.321,0.481 ± 0.0105 kcal/mol
same,excess molar enthalpy,x1 = 0.329,0.49 ± 0.0108 kcal/mol
same,excess molar enthalpy,x1 = 0.338,0.5 ± 0.011 kcal/mol
same,excess molar enthalpy,x1 = 0.346,0.51 ± 0.011 kcal/mol
same,excess molar enthalpy,x1 = 0.356,0.52 ± 0.0112 kcal/mol
same,excess molar enthalpy,x1 = 0.365,0.53 ± 0.0115 kcal/mol
same,excess molar enthalpy,x1 = 0.372,0.537 ± 0.0117 kcal/mol
same,excess molar enthalpy,x1 = 0.378,0.544 ± 0.0117 kcal/mol
same,excess molar enthalpy,x1 = 0.385,0.552 ± 0.012 kcal/mol
same,excess molar enthalpy,x1 = 0.392,0.559 ± 0.0122 kcal/mol
same,excess molar enthalpy,x1 = 0.4,0.567 ± 0.0122 kcal/mol
same,excess molar enthalpy,x1 = 0.407,0.574 ± 0.0124 kcal/mol
same,excess molar enthalpy,x1 = 0.415,0.581 ± 0.0124 kcal/mol
same,excess molar enthalpy,x1 = 0.424,0.588 ± 0.0127 kcal/mol
same,excess molar enthalpy,x1 = 0.432,0.595 ± 0.0127 kcal/mol
same,excess molar enthalpy,x1 = 0.441,0.6 ± 0.0129 kcal/mol
same,excess molar enthalpy,x1 = 0.451,0.604 ± 0.0129 kcal/mol
same,excess molar enthalpy,x1 = 0.46,0.607 ± 0.0129 kcal/mol
same,excess molar enthalpy,x1 = 0.471,0.608 ± 0.0129 kcal/mol
same,excess molar enthalpy,x1 = 0.481,0.606 ± 0.0129 kcal/mol
same,excess molar enthalpy,x1 = 0.492,0.604 ± 0.0129 kcal/mol
same,excess molar enthalpy,x1 = 0.504,0.601 ± 0.0129 kcal/mol
same,excess molar enthalpy,x1 = 0.516,0.597 ± 0.0127 kcal/mol
same,excess molar enthalpy,x1 = 0.529,0.592 ± 0.0127 kcal/mol
same,excess molar enthalpy,x1 = 0.542,0.586 ± 0.0124 kcal/mol
same,excess molar enthalpy,x1 = 0.557,0.578 ± 0.0124 kcal/mol
same,excess molar enthalpy,x1 = 0.572,0.568 ± 0.0122 kcal/mol
same,excess molar enthalpy,x1 = 0.587,0.558 ± 0.012 kcal/mol
same,excess molar enthalpy,x1 = 0.604,0.546 ± 0.0117 kcal/mol
same,excess molar enthalpy,x1 = 0.622,0.532 ± 0.0115 kcal/mol
same,excess molar enthalpy,x1 = 0.64,0.516 ± 0.0112 kcal/mol
same,excess molar enthalpy,x1 = 0.648,0.508 ± 0.011 kcal/mol
same,excess molar enthalpy,x1 = 0.656,0.501 ± 0.0108 kcal/mol
same,excess molar enthalpy,x1 = 0.664,0.492 ± 0.0108 kcal/mol
same,excess molar enthalpy,x1 = 0.673,0.484 ± 0.0105 kcal/mol
same,excess molar enthalpy,x1 = 0.681,0.475 ± 0.0103 kcal/mol
same,excess molar enthalpy,x1 = 0.69,0.465 ± 0.0103 kcal/mol
same,excess molar enthalpy,x1 = 0.699,0.455 ± 0.01 kcal/mol
same,excess molar enthalpy,x1 = 0.708,0.444 ± 0.0098 kcal/mol
same,excess molar enthalpy,x1 = 0.718,0.433 ± 0.00956 kcal/mol
same,excess molar enthalpy,x1 = 0.728,0.421 ± 0.00932 kcal/mol
same,excess molar enthalpy,x1 = 0.738,0.408 ± 0.00908 kcal/mol
same,excess molar enthalpy,x1 = 0.748,0.396 ± 0.00884 kcal/mol
same,excess molar enthalpy,x1 = 0.759,0.382 ± 0.0086 kcal/mol
same,excess molar enthalpy,x1 = 0.77,0.367 ± 0.00837 kcal/mol
same,excess molar enthalpy,x1 = 0.781,0.352 ± 0.00813 kcal/mol
same,excess molar enthalpy,x1 = 0.792,0.336 ± 0.00765 kcal/mol
same,excess molar enthalpy,x1 = 0.804,0.319 ± 0.00741 kcal/mol
same,excess molar enthalpy,x1 = 0.817,0.301 ± 0.00717 kcal/mol
same,excess molar enthalpy,x1 = 0.829,0.283 ± 0.00669 kcal/mol
same,excess molar enthalpy,x1 = 0.842,0.263 ± 0.00645 kcal/mol
same,excess molar enthalpy,x1 = 0.856,0.242 ± 0.00598 kcal/mol
same,excess molar enthalpy,x1 = 0.87,0.22 ± 0.00574 kcal/mol
same,excess molar enthalpy,x1 = 0.884,0.197 ± 0.00526 kcal/mol
same,excess molar enthalpy,x1 = 0.899,0.173 ± 0.00502 kcal/mol
same,excess molar enthalpy,x1 = 0.914,0.148 ± 0.00454 kcal/mol
same,excess molar enthalpy,x1 = 0.93,0.12 ± 0.0043 kcal/mol
same,excess molar enthalpy,x1 = 0.947,0.0927 ± 0.00406 kcal/mol
same,excess molar enthalpy,x1 = 0.964,0.0626 ± 0.00382 kcal/mol
same,excess molar enthalpy,x1 = 0.982,0.032 ± 0.00359 kcal/mol
